The target in assay [1] is T1, PTEN (PTEN-Halo) (Dictyostelium discoideum, UniProt Q8T9S7, R47A). Kind of assay: single-molecule TIRF imaging on supported planar lipid bilayer, dissociation curve. The assay is classed as binding. The conditions noted are these: 10 mol% PI(4,5)P2 in DOPC bilayer, pH 8.0, 300 mM NaCl, 21 °C.
The target in assay [2] is T2, PTEN (PTEN-Halo) (Dictyostelium discoideum, UniProt Q8T9S7).
T2 sequence (Q8T9S7 1-533): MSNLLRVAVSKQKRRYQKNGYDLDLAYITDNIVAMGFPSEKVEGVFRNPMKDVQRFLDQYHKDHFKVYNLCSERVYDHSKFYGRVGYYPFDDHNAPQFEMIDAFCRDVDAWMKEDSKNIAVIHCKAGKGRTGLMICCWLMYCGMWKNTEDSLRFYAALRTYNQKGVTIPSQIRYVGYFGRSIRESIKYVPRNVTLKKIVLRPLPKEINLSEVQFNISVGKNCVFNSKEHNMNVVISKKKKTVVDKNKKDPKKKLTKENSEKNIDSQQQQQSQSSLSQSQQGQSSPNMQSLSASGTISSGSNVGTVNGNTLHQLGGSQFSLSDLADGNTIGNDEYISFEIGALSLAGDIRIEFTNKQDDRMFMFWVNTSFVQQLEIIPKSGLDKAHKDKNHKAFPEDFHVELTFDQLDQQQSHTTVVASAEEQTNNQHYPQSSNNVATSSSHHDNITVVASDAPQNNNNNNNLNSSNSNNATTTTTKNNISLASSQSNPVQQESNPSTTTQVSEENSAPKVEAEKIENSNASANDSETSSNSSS
Described as above. The conditions noted are these: 10 mol% PI(4,5)P2 in DOPC bilayer, pH 8.0, 300 mM NaCl, 21 °C; membrane dissociation of protein, two binding states; no affinity constant.

For assay [3], the target named is T1, PTEN (PTEN-Halo). Kind of assay: phosphate release, BIOMOL Green, absorbance […] nm. In kind it is biochemical. The conditions noted are these: 5 nmol substrate in 50 μL, pH 8.0, 2 mM DTT, 21 °C, 2 h.
Assay [4] deals with PTEN (PTEN-Halo) (Dictyostelium discoideum, UniProt Q8T9S7, K11A/K13A/R14A/R15A). Kind of assay: phosphate release, BIOMOL Green, absorbance […] nm. In kind it is biochemical. Conditions: 5 nmol substrate in 50 μL, pH 8.0, 2 mM DTT, 21 °C, 2 h.
Chain of PTEN (PTEN-Halo) (Dictyostelium discoideum, UniProt Q8T9S7, K11A/K13A/R14A/R15A) (Q8T9S7 whole entry K11A/K13A/R14A/R15A): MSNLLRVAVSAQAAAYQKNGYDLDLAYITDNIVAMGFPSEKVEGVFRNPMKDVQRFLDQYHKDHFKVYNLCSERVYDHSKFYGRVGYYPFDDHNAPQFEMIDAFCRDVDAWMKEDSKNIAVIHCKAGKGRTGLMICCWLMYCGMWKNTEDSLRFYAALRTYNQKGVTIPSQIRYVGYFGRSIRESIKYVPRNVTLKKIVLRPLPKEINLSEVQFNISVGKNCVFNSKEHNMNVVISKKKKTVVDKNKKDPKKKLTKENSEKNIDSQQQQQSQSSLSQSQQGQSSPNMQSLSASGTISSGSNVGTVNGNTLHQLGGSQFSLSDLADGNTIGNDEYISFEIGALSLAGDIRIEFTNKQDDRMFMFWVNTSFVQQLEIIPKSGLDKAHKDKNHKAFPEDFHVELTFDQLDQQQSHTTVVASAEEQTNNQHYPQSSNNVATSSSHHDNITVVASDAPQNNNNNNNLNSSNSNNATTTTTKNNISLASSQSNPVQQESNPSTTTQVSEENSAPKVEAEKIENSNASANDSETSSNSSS

T1 sequence (Q8T9S7 whole entry R47A): as the sequence (Q8T9S7 whole entry K11A/K13A/R14A/R15A) above, with A11K, A13K, A14R, A15R, R47A counted along it

As for `CCCCCCCC/C=C\CCCCCCCC(=O)OC[C@H](COP(=O)(O)O[C@@H]1[C@H](O)[C@H](O)[C@@H](OP(=O)(O)O)[C@H](OP(=O)(O)O)[C@H]1O)OC(=O)CCCCCCC/C=C\CCCCCCCC` [PI(4,5)P2, 1,2-dioleoyl-sn-glycero-3-phospho-(1′-myo-inositol-4′,5′-bisphosphate)], the “average dissociation rate constant k” value was “both mutants exhibited faster dissociation than wild type” in assay [1] and 15.9 ± 2.8 s⁻¹ in assay [2].

As to `CCCCCCCC(=O)OC[C@H](COP(=O)(O)O[C@H]1[C@H](O)[C@@H](OP(=O)(O)O)[C@H](OP(=O)(O)O)[C@@H](OP(=O)(O)O)[C@H]1O)OC(=O)CCCCCCC` [diC8-PI(3,4,5)P3], the “phosphate release, BIOMOL Green, absorbance 620 nm” value in assay [3] and in assay [4] was “Phosphatase activities of the mutants were comparable to each other” each time.

The values are drawn from paper PMC7048775, “Single-molecule imaging of PI(4,5)P2 and PTEN in vitro reveals a positive feedback mechanism for PTEN membrane binding” (Communications Biology, 2020).
